This note sets out measurements from US12103939B2, “Solid pharmaceutical gold-based composition” (KING FAHD UNIVERSITY OF PETROLEUM AND MINERALS, priority 2019, dated 2024).

The test system of experiment [1] is A549 lung cancer cell line. The experiment can be described thus: Cytotoxicity assay (MTT, 72 h). The experiment is classed as cell-based, human. The note with it: A549, MTT after 72 h, mean (SD); read-out: Half-maximal inhibitory concentration (IC50). The procedure:
(§1) R-ME-180 and A2780cis cells were maintained in 1 μM cisplatin. Adipose-derived stromal cells were maintained in MSCGM BulletKit medium (Lonza). All cell lines were cultured at 37° C. in a 5% CO2, fully humidified atmosphere
(§2) Cell lines were seeded in 96-well flat-bottomed microplates in 100 μL culture medium at the following densities: DU145, PC3 and MCF-7 cells (2.5×10^3 cells/well); A2780, A2780cis, ME-180, R-ME-180 and A549 cells (4.0×10^3 cells/well); and MG-63 cells (2.0×10^3 cells/well). Cells were allowed to adhere for 24 h. Then the medium was replaced with fresh medium alone or with one of the gold(III) complexes at increasing concentrations from 0 to 100 μM. The reference drugs cisplatin (0-100 μM) and doxorubicin (0-1 μM) were included as positive controls for growth inhibition. After 72 h, cell viability was assayed using the MTT assay.
(§3) See Chou T. C.; Talalay P. Quantitative analysis of dose-effect relationships: the combined effects of multiple drugs or enzyme inhibitors. […] 22, 27-55, incorporated herein by reference in its entirety. IC50 values were reported as mean (SD). For drug-resistance cell lines, fold resistance (FR) was calculated as the ratio of the IC50 of the resistant cell line to the IC50 of the parental cell line.

For experiment [2], the system named is ovarian cancer cell line A2780. The experiment can be described thus: Cytotoxicity assay (MTT, 72 h). The experiment is classed as cell-based, human. The note with it: A2780, MTT after 72 h, mean (SD). As to the method: as §1, §2, §3
The subject of experiment [3] is MCF-7 breast cancer cell line. Description: Cytotoxicity assay (MTT, 72 h). The note with it: MCF-7, MTT after 72 h, mean (SD); read-out: Half-maximal inhibitory concentration (IC50). It is filed as cell-based, human. The procedure:
as §1, §2, §3

In experiment [4] the test system is DU145 prostate cancer cell line. The experiment can be described thus: Cytotoxicity assay (MTT, 72 h). The note with it: DU145, MTT after 72 h, mean (SD); read-out: Half-maximal inhibitory concentration (IC50). It is filed as cell-based, human. As to the method:
as §1, §2, §3

Experiment [5] relates to MG-63 osteosarcoma cell line. Description: Cytotoxicity assay (MTT, 72 h). It is filed as cell-based, human. Conditions: MG63, MTT after 72 h, mean (SD); read-out: Half-maximal inhibitory concentration (IC50). As to the method: as §1, §2, §3
In experiment [6] the test system is PC3 prostate cancer cell line. The experiment can be described thus: Cytotoxicity assay (MTT, 72 h). The experiment is classed as cell-based, human. The note with it: PC3, MTT after 72 h, mean (SD); read-out: Half-maximal inhibitory concentration (IC50). The procedure:
as §1, §2, §3

Experiment [7] relates to cisplatin-resistant R-ME-180 clone. Description: Cytotoxicity assay (MTT, 72 h). The experiment is classed as cell-based, human. The note with it: for FR (R-ME-180/ME-180), fold resistance: IC50 R-ME-180 / IC50 ME-180; for IC50: R-ME-180, MTT after 72 h, mean (SD). As to the method: as §1, §2, §3
Experiment [8] relates to cervical cancer cell line ME-180. The experiment can be described thus: Cytotoxicity assay (MTT, 72 h). The experiment is classed as cell-based, human. The note with it: ME-180, MTT after 72 h, mean (SD). As to the method:
as §1, §2, §3

Experiment [9] relates to cisplatin- and doxorubicin-resistant A2780cis clone. The experiment can be described thus: Cytotoxicity assay (MTT, 72 h). It is filed as cell-based, human. Conditions: for IC50: A2780cis, MTT after 72 h, mean (SD); for FR (A2780cis/A2780), fold resistance: IC50 A2780cis / IC50 A2780. As to the method:
as §1, §2, §3

Experiment [10] has as its target T1, lysozyme (Gallus gallus, UniProt P00698).
T1 construct: purchased Sigma-Aldrich
Description: Voltammetry, interaction with lysozyme. The note with it: 100 μM complex. The procedure: The pH of buffers was monitored on a Accumet XL50 pH meter. A GR-2000 electrical balance was used to weigh the various chemicals. Electrochemical measurements for cyclic voltammetry and square wave voltammetry were performed using Autolab instruments (Metrohm; Netherlands). […] The GCE was polished as a mirror-like surface with alumina slurry on a synthetic cloth before every electrochemical analysis. Square wave voltammetry and cyclic voltammetry were scanned from 0 to 1.3 V for the various analyses. Elemental analyses of gold(III) complexes (C1-C8) were performed on PerkinElmer Series 11 (CHNS/O), Analyzer 2400.
The electrochemical investigation of the interactions between the gold(III) complexes (C1-C8) and lysozyme, tryptophan and guanine was performed using the Autolab instrument described above, with a three-electrode system (CH Instruments): platinum wire counter electrode (CHI115), Ag/AgCl reference electrode (in 3 M KCl, CHI111) and glassy carbon working electrode (CHI112) inserted into a 5.0 ml glass cell. Solutions of 1 mM lysozyme, 5 mM tryptophan and 5 mM guanine were prepared in double distilled water, and the experiment was performed in 0.1 M phosphate buffer at pH 6.8.

Where [11] appears, read: CV, 0 μM lysozyme, 0.1 M phosphate buffer pH 6.8.

T1 sequence (P00698 19-147): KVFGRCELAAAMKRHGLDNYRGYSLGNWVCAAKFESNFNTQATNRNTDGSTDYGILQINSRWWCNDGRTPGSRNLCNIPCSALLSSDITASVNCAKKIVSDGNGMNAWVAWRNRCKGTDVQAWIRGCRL

On to `Oc1ccc[n+]2c1-c1c(O)ccc[n+]1[Au-]2([Cl])[Cl].[Cl-]` [C1, [Au(BPYH)(Cl)2]Cl], for which the IC50 in experiment [1] was over 80 µM; in [2] it was 23 µM; in experiment [3] it was 59 µM; in [4], 39 µM; in experiment [5], 43 µM; in experiment [6] it was 28.3 µM. Further, the results for the IC50 in experiment [7], in experiment [8] and in [9] were 72 µM, 70 µM and 24 µM, respectively. The “FR (R-ME-180/ME-180), fold resistance” value in experiment [7] was found to be 1.0. For the same compound, the “FR (A2780cis/A2780), fold resistance” value in experiment [9] is 1.0. Besides, the Voltammetry peak potential in [10] (setting [11]) is 0.739 V; in experiment [10] (CV, 1 μM lysozyme, pH 6.8), 0.8142 V; in experiment [10] (CV, 4 μM lysozyme, pH 6.8), 0.8319 V; in [10] (CV, 10 μM lysozyme, pH 6.8), 0.8762 V; in [10] (SWV, 0 μM lysozyme, pH 6.8), 0.7934 V; in experiment [10] (SWV, 1 μM lysozyme, pH 6.8) it was 0.8034 V. Besides, the Voltammetry peak potential in experiment [10] (SWV, 4 μM lysozyme, pH 6.8) was determined as 0.8387 V; in experiment [10] (SWV, 10 μM lysozyme, pH 6.8), 0.8639 V.
With `CN(C)C1=[S+][Au-]2([S]1)[n+]1cccc(O)c1-c1c(O)ccc[n+]12.[Cl-].[Cl-]` [C2, [Au(BPYH)(DMDTC)]Cl2], the IC50 in [1] turned out to be 6.1 µM; in experiment [2] it was 0.9 µM; in experiment [3], 2.3 µM; in experiment [4], 2.8 µM; in experiment [5], 3.8 µM; in experiment [6] it was 1.5 µM. In addition, the IC50 in [7] was determined as 21 µM; in [8] it was 14 µM; in [9], 0.8 µM. The “FR (R-ME-180/ME-180), fold resistance” value in experiment [7] was 1.5. Moreover, the “FR (A2780cis/A2780), fold resistance” value in experiment [9] was 0.9. The Voltammetry peak potential in experiment [10] (setting [11]) was 0.7921 V; in experiment [10] (CV, 1 μM lysozyme, pH 6.8) it was 0.8009 V; in experiment [10] (CV, 4 μM lysozyme, pH 6.8) it was 0.8186 V; in experiment [10] (CV, 10 μM lysozyme, pH 6.8), 0.8319 V; in [10] (SWV, 0 μM lysozyme, pH 6.8) it was 0.7883 V; in [10] (SWV, 1 μM lysozyme, pH 6.8), 0.7934 V. Further, the Voltammetry peak potential in experiment [10] (SWV, 4 μM lysozyme, pH 6.8) is given as 0.8085 V; in [10] (SWV, 10 μM lysozyme, pH 6.8) it was 0.8135 V.
As for `CCN(CC)C1=[S+][Au-]2([S]1)[n+]1cccc(O)c1-c1c(O)ccc[n+]12.[Cl-].[Cl-]` [C3, [Au(BPYH)(DEDTC)]Cl2], the IC50 in experiment [1] came to 3.8 µM; in experiment [3] it was 1.7 µM; in [4] it was 3.5 µM; in [5], 1.2 µM; in experiment [6], 1.3 µM; in experiment [7], 3.8 µM. The compound further returned an IC50 in [9] of 0.4 µM. Besides, the “FR (R-ME-180/ME-180), fold resistance” value in experiment [7] was 1.3. Also, in [9], the “FR (A2780cis/A2780), fold resistance” value worked out at 1.1. Further, the Voltammetry peak potential is 0.7965 V in [10] (setting [11]); 0.8098 V in experiment [10] (CV, 1 μM lysozyme, pH 6.8); 0.8231 V in [10] (CV, 4 μM lysozyme, pH 6.8); 0.8363 V in [10] (CV, 10 μM lysozyme, pH 6.8); 0.7934 V in experiment [10] (SWV, 0 μM lysozyme, pH 6.8); 0.8034 V in [10] (SWV, 1 μM lysozyme, pH 6.8). Also, the Voltammetry peak potential was 0.8135 V in [10] (SWV, 4 μM lysozyme, pH 6.8) and 0.8236 V in [10] (SWV, 10 μM lysozyme, pH 6.8).
Take `Oc1ccc[n+]2c1-c1c(O)ccc[n+]1[Au-]21[S]C(N(Cc2ccccc2)Cc2ccccc2)=[S+]1.[Cl-].[Cl-]` [C4, [Au(BPYH)(DBDTC)]Cl2]: the IC50 in experiment [1] came out at 25 µM; in [2] it was 7.3 µM; in [3], 13 µM; in experiment [4], 6.4 µM; in experiment [5], 12.3 µM; in [6], 8.5 µM. Besides, the figures for the IC50 in experiment [7], in experiment [8] and in [9] were 30 µM, 30 µM and 8.2 µM, respectively. Further, the “FR (R-ME-180/ME-180), fold resistance” value in experiment [7] is 1.0. The “FR (A2780cis/A2780), fold resistance” value in experiment [9] was 1.1. For the same compound, the Voltammetry peak potential in [10] (setting [11]) was 0.7965 V; in experiment [10] (CV, 1 μM lysozyme, pH 6.8), 0.8098 V; in experiment [10] (CV, 4 μM lysozyme, pH 6.8) it was 0.8186 V; in experiment [10] (CV, 10 μM lysozyme, pH 6.8), 0.8275 V; in experiment [10] (SWV, 0 μM lysozyme, pH 6.8), 0.7883 V; in experiment [10] (SWV, 1 μM lysozyme, pH 6.8) it was 0.7934 V. Besides, the Voltammetry peak potential in [10] (SWV, 4 μM lysozyme, pH 6.8) was determined as 0.8085 V; in experiment [10] (SWV, 10 μM lysozyme, pH 6.8) it was 0.8135 V.
Regarding `[Cl-].[Cl-].[Cl][Au-]1([Cl])[n+]2ccc[n+]3c2-c2[n+]1ccc[n+]2[Au-]3([Cl])[Cl]` [C5, [Au2(BPM)(Cl)4]Cl2], the IC50 in [1] was over 80 µM; in experiment [2] it was 15.4 µM; in experiment [3] it was 65 µM; in experiment [4], over 80 µM; in [5], 26 µM; in experiment [6], over 80 µM. The IC50 in experiment [7] was over 80 µM; in experiment [8], over 80 µM; in experiment [9] it was 16.2 µM. The “FR (A2780cis/A2780), fold resistance” value in experiment [9] is recorded as 1.1.
Consider `[Cl-].[Cl-].[Cl-].[Cl-].c1ccc(C[N+](Cc2ccccc2)=C2[S][Au-]3([S]2)[n+]2ccc[n+]4c2-c2[n+]3ccc[n+]2[Au-]42[S]C(=[N+](Cc3ccccc3)Cc3ccccc3)[S]2)cc1` [C8, [Au2(BPM)(DBDTC)2]Cl4], for which the IC50 in experiment [1] came to 23 µM; in experiment [2], 3.8 µM; in [3] it was 9.5 µM; in experiment [4], 22.8 µM; in experiment [5], 5.8 µM; in experiment [6] it was 19.5 µM. Further, the IC50 in [7] turned out to be 16 µM; in experiment [8] it was 15 µM; in experiment [9], 5.2 µM. Also, in experiment [7], the “FR (R-ME-180/ME-180), fold resistance” value amounted to 1.0. Further, in [9], the “FR (A2780cis/A2780), fold resistance” value is on record as 1.4.
`N.N.[Cl][Pt][Cl]` [Cisplatin, reference compound]: the IC50 turned out to be 1.5 µM in experiment [2]; 4.5 µM in experiment [4]; 3.3 µM in [6]; 68 µM in [7]; 15 µM in experiment [8]; 10.4 µM in experiment [9]. Besides, the “FR (R-ME-180/ME-180), fold resistance” value in experiment [7] came to 4.5. The “FR (A2780cis/A2780), fold resistance” value in experiment [9] was 6.9.
Take `COc1cccc2c1C(=O)c1c(O)c3c(c(O)c1C2=O)C[C@@](O)(C(=O)CO)C[C@@H]3O[C@H]1C[C@H](N)[C@H](O)[C@H](C)O1` [Doxorubicin, reference compound]: the IC50 came to 0.02 µM in experiment [2] (Homo sapiens) and 0.12 µM in experiment [9] (Homo sapiens). Besides, the “FR (A2780cis/A2780), fold resistance” value in [9] stood at 9.0.
